Data set [1] has as its system scopolamine-induced mice with cognitive impairment. The following applies: one-month pre-treatment via cannula into the third ventricle, total 65 ng/month/head; cited from earlier work.
For data set [2] the following is noted: cited from earlier work.
Data set [3] deals with scopolamine-induced amnesiac ICR mice. The following applies: pre-treatment 40 mg/kg; cited from earlier work.
Data set [4] is described as follows: DPPH radical scavenging activity. The following applies: 120 μM DPPH in methanol, 37 °C, 20 min. Here is the method:
DPPH radical scavenging activity was assayed following a previous report, with some modifications. […] DMSO was used instead of a sample solution in the blank group. […] The scavenging activity of the DPPH radical (%) was calculated with the following equation: (△A515blank − △A515sample) ÷ △A515blank × 100%. The IC50 of the DPPH radical scavenging activity of PIC and its analogs or that of Trolox was calculated from each linear equation by three test concentrations and their radical scavenging activities.

Data set [5] addresses T1, recombinant human AChE (Homo sapiens, UniProt P22303).
T1 construct: purchased R&D Systems Inc. (Minneapolis, MN, USA)
Put plainly: AChE inhibitory activity in vitro (acetylthiocholine/DTNB). The class given is biochemical. The following applies: calculated from 100, 200, 500 μM; read-out: IC50 of the anti-AChE activity. Here is the method: Commercially synthesized acetylthiocholine iodide was hydrolyzed using AChE to release thiocholine, which was coupled with DTNB to generate the yellowish 5-thio-2-nitrobenzoate for in vitro AChE activity assays. For the AChE inhibitory activity assay, each analog was dissolved in the DMSO, and final concentrations of 100, 200, and 500 μM were used for comparisons. An equal volume of DMSO instead of the sample solution was used in the blank group and expressed as 100% AChE activity. […] AChE inhibition (%) was calculated as follows: [(A405blank − A405sample)/(A405blank)] × 100%.

Data set [6] has as its target T2, Aβ peptide (1–42) (Homo sapiens, UniProt P05067).
T2 construct: The Aβ peptide (1–42) was synthesized and purchased from Kelowna International Scientific Inc; purchased Kelowna International Scientific Inc. (New Taipei, Taiwan); host or cells: chemical synthesis
Kind of data set: biochemical. Particulars: 10 μM Aβ working solution, ThT, 37 °C, 24 h; read-out: IC50 of the anti-Aβ peptide (1–42) aggregation. Here is the method:
To prepare the 10 μM Aβ peptide working solution, commercial Aβ peptide was first weighted and dissolved in HFIP to 1 mM. Next, the solvent was evaporated in a hood and then re-dissolved using 100 μL of 60 mM NaOH. It was then diluted to 10 μM working solutions with 50 mM phosphate buffer (pH 7.4, containing 150 mM sodium chloride and 1 mM EDTA), following previous reports. […] DMSO instead of the sample solution was used as the control. The 50 mM phosphate buffer was used instead of the Aβ working solution as the sample blank. […] The IC50 of the inhibition against the Aβ aggregation of PIC and its analogs was calculated from each linear equation using three test concentrations and their inhibition capacities.

Data set [7] relates to SH-SY5Y cells. Kind of data set: Neuroprotection against Aβ peptide (25–35)-induced cell deaths (MTT). The class given is cell-based, human. Particulars: pre-treatment 1, 2 and 10 μM for 24 h, then 40 μg/mL Aβ (25–35) 24 h; vs control p < 0.05. Here is the method: The human SH-SY5Y neuroblastoma cell lines (CRL-2266, Lot No. 58979771) were purchased from American Type Culture Collection (Manassas, VA, USA) and used as models to investigate PIC and its analogs for neuroprotective activities against Aβ-induced cell deaths and the stimulation of neurite outgrowths. The SH-SY5Y cells were grown in DMEM/F-12 medium supplemented with 10% FBS at 37 °C under a humidified atmosphere and 5% CO2 [41]. […]. The SH-SY5Y cells (10,000 cells/well) were seeded and cultured in a DMEM/F-12 medium containing 10% FBS for 24 h at 37 °C under a humidified atmosphere and 5% CO2. […] The medium was then removed, and 40 μg/mL Aβ peptide (25–35) (dissolved in PBS) or an equal aliquot of PBS was added to the medium for another 24 h culture. The MTT was used to evaluate cell viability, and the absorbance at 570 nm was determined. The DMSO used instead of the sample solution was blank (recognized as 100%), and each treatment was expressed as relative cell viability (%). To study the stimulation of neurite outgrowth, the SH-SY5Y cells (5000 cells/well) were seeded on a 96-well plate pre-coated with poly-L-lysine and then cultured in the DMEM/F-12 medium containing 10% FBS overnight at 37 °C under a humidified atmosphere and 5% CO2. After being removed from the culture medium, each PIC, GNT, RHA, and isoRHA (at a final concentration of 10 μM in the 0.1%DMSO) or 0.1% DMSO (the control) was added to the DMEM/F-12 medium containing 10% FBS and refreshed every three days. On day 3 and day 6, each of the culture plates was photographed using an inverted microscope (ECLIPSE TS100, Nikon Instruments Inc., Tokyo, Japan). The culture medium was removed and washed with PBS, and the cultured cells in each well were fixed with 4% paraformaldehyde. To measure cell viability and quantify the neurite outgrowths of the treated SH-SY5Y in a 96-well plate, the neurite outgrowth staining kit (a two-color fluorescence assay kit) was used, following a previous report or the protocol in the manufacturer’s manual (publication number: MAN0007224), which included a cell membrane-stained fluorescent dye (orange-red fluorescence), a cell viability indicator (green fluorescence), and a reagent for background masking. The fluorescence ratios of Ex555nm/Em565nm and Ex495nm/Em515nm were determined for the neurite outgrowths and the cell viabilities, respectively. The value for the control was recognized as 100%, and each treatment was expressed relative to the control.

A short description of data set [8]: Neurite outgrowth and cell viability, two-color fluorescence assay kit. The class given is cell-based. The following applies: human, SH-SY5Y neuroblastoma cells, 3-day or 6-day treatment, green fluorescence, read-out: cell viability relative to the control. Here is the method:
(§1) The SH-SY5Y cells were grown in DMEM/F-12 medium supplemented with 10% FBS at 37 °C under a humidified atmosphere and 5% CO2 [41]. […] The MTT was used to evaluate cell viability, and the absorbance at 570 nm was determined. The DMSO used instead of the sample solution was blank (recognized as 100%), and each treatment was expressed as relative cell viability (%). To study the stimulation of neurite outgrowth, the SH-SY5Y cells (5000 cells/well) were seeded on a 96-well plate pre-coated with poly-L-lysine and then cultured in the DMEM/F-12 medium containing 10% FBS overnight at 37 °C under a humidified atmosphere and 5% CO2. After being removed from the culture medium, each PIC, GNT, RHA, and isoRHA (at a final concentration of 10 μM in the 0.1%DMSO) or 0.1% DMSO (the control) was added to the DMEM/F-12 medium containing 10% FBS and refreshed every three days. On day 3 and day 6, each of the culture plates was photographed using an inverted microscope (ECLIPSE TS100, Nikon Instruments Inc., Tokyo, Japan). The culture medium was removed and washed with PBS, and the cultured cells in each well were fixed with 4% paraformaldehyde. To measure cell viability and quantify the neurite outgrowths of the treated SH-SY5Y in a 96-well plate, the neurite outgrowth staining kit (a two-color fluorescence assay kit) was used, following a previous report or the protocol in the manufacturer’s manual (publication number: MAN0007224), which included a cell membrane-stained fluorescent dye (orange-red fluorescence), a cell viability indicator (green fluorescence), and a reagent for background masking. […] The value for the control was recognized as 100%, and each treatment was expressed relative to the control.

Data set [9] relates to SH-SY5Y cells. The data set is described as above. The following applies: 10 μM. The class given is cell-based. Here is the method: as §1
The conditions of data set [10]: read-out: Cmax of metabolite; after intravenous PIC 90 μmole/kg (21.98 mg/kg), SD rats; cited from earlier work.
For data set [11], the system named is early Alzheimer’s. The following applies: 18-month phase-3 trial; cited from earlier work.

Here are results for 5 molecules from paper PMC10376691, “Inhibition of Acetylcholinesterase and Amyloid-β Aggregation by Piceatannol and Analogs: Assessing In Vitro and In Vivo Impact on a Murine Model of Scopolamine-Induced Memory Impairment” (Antioxidants, 2023).

What is called IC50 is the concentration that gives 50% inhibition. Broadly, the viability is the share of living cells, or the viability signal relative to a control. For orientation: Cmax means the peak of the concentration-time curve.

Entries after “also recorded” stand apart in the source; their conditions may differ.

T2 sequence (P05067 672-713): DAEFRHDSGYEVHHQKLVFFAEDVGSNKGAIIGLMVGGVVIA
T1 sequence (P22303 32-614): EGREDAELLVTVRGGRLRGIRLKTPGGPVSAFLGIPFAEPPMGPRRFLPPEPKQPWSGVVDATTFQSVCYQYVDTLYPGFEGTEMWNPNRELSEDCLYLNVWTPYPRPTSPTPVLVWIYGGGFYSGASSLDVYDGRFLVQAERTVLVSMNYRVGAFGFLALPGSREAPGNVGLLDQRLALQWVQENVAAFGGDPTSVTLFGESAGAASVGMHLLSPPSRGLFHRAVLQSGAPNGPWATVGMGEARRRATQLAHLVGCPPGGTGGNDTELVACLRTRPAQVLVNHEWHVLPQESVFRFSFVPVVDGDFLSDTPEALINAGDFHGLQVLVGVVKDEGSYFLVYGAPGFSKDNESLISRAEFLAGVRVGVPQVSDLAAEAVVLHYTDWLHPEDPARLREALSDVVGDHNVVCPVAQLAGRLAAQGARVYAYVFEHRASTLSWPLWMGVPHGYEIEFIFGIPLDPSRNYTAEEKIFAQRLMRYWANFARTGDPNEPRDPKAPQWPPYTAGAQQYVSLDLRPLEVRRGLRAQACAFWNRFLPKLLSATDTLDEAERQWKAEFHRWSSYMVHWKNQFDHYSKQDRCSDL

On to `Oc1ccc([C@H]2c3c(O)cc(O)cc3[C@H]3c4c(cc(O)cc4[C@@H]2O)O[C@@H]3c2ccc(O)cc2)cc1` [ampelopsin A], for which, in [1], the “learning behavior, passive avoidance test and novel object recognition” value is listed as “clear restoration of learning behavior”.
Consider `OC[C@H]1O[C@@H](Oc2cc(/C=C/c3cc(O)cc(O)c3)ccc2O)[C@H](O)[C@@H](O)[C@@H]1O` [piceatannol-3′-O-β-D-glucopyranoside], for which, in [2], the “crossing of the BBB” value is “reported to cross the BBB”.
In the case of `Oc1ccc([C@H]2c3c(O)cc(O)cc3[C@H]3c4c(cc(O)cc4[C@@H]2c2cc(/C=C/c4cc(O)cc5c4[C@H](c4cc(O)cc(O)c4)[C@@H](c4ccc(O)cc4)O5)ccc2O)O[C@@H]3c2ccc(O)cc2)cc1` [vitisin A], in [3], the “learning and memory functions via the passive avoidance test” value is “improved learning and memory functions”.
As to `COc1cc(C=Cc2cc(O)cc(O)c2)ccc1O` [isoRHA, 3,5,4′-trihydroxy-3′-methoxystilbene], the IC50 was 72.9 µM in [4], 322 µM in data set [5] and 1.94 µM in [6]. The “neuroprotection: cell viability against Aβ peptide (25–35)-induced cell deaths” value in data set [7] was “elevated cell viabilities”. Also, in data set [8], the viability at 10 µM was 80%. Moreover, the “stimulation of neurite outgrowths” value in data set [9] (3-day or 6-day treatment, orange-red fluorescence, vs control) was “stimulate neurite outgrowths; also recorded: showed stimulated activities toward neurite outgrowths; also recorded: showed stimulatory activity in neurite outgrowths”. Besides, in data set [9] (calculated), the “total neurite lengths in living SH-SY5Y cells, fold of the control” value is 1.375 fold. In addition, in data set [10], the Cmax was 5.08 ± 0.31 µM.

B1: lecanemab (antibody, chains of the INN, looked up, V domains shown)
VH: EVQLVESGGGLVQPGGSLRLSCSASGFTFSSFGMHWVRQAPGKGLEWVAYISSGSSTIYYGDTVKGRFTISRDNAKNSLFLQMSSLRAEDTAVYYCAREGGYYYGRSYYTMDYWGQGTTVTVSS
VL: DVVMTQSPLSLPVTPGAPASISCRSSQSIVHSNGNTYLEWYLQKPGQSPKLLIYKVSNRFSGVPDRFSGSGSGTDFTLRISRVEAEDVGIYYCFQGSHVPPTFGPGTKLEIK
On to B1, for which, in data set [11], the “less decline in measures of cognition and function as compared to a placebo” value was 25%.
